Measured values: patent US20210122746A1, “FEBRIFUGINE DERIVATIVES” (BRISTOL-MYERS SQUIBB COMPANY, priority 2017, published 2021)
Structures can show the parent of a compound that is named as a salt.

Target: T1, human ProRS (prolyl tRNA synthetase moiety of glutamyl prolyl tRNA synthetase) (Homo sapiens, UniProt P07814)
T1 construct: The prolyl tRNA synthetase moiety (ProRS) in the cDNA of glutamyl prolyl tRNA synthetase was subcloned; 6xHis (N, cleaved yes); made in house; host or cells: E. coli BL21 (DE3)
T1 sequence (P07814 1007-1512 limits assumed): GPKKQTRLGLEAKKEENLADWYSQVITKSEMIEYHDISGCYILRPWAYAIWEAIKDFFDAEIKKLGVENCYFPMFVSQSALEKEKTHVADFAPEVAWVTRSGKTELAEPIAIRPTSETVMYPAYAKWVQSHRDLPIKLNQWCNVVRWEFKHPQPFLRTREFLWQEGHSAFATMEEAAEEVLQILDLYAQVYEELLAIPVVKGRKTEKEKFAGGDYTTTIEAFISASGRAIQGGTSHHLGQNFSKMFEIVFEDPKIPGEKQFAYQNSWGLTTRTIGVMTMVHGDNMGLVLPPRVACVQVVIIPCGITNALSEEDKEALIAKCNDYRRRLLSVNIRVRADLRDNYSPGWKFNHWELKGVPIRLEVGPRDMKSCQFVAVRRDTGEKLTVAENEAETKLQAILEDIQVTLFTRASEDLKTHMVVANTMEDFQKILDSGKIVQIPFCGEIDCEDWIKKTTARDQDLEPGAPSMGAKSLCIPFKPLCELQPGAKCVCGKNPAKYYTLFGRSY
Assay: Assay for inhibitors of prolyl tRNA synthetase activity (ProRS assay, labeled proline incorporation)
Format: biochemical
Settings: ProRS 20 nM, compounds 10 μM to 0.5 nM, 10 min at 37° C.; read-out: EPR IC50
Text: In order to establish the activities of the compounds highlighted above, we determined extent of inhibition of prolyl tRNA synthetase activity in dose response curves to obtain IC50 values.
The prolyl tRNA synthetase moiety (ProRS) in the cDNA of glutamyl prolyl tRNA synthetase was subcloned, tagged with a single biotin, purified and used in the assay. Briefly, human ProRS with a 6× N-terminal His tag in pET28N with TVMV BioP was transformed in E. coli BL21 (DE3) cells, selected, overexpressed and purified using a Ni Seph 6 FF XK 16/20 column in the first stage. Ni-NTA eluates were pooled and treated with TVMV protease, and biotinylated using d-Biotin, MgCl2, ATP and the BirA enzyme. This was rerun through a Ni column as before. The eluates were further enriched and purified using membrane ultrafiltration and a SuperDex 200 XK 16/60 column, and peak fractions were confirmed by SDS-PAGE prior to protein amount determination, aliquoting and storage at −80° C.
ProRS assay was performed in 96 well plates in a final reaction volume of 20 μl, using staggered additions of Tris-Cl (pH 7.5, 60 mM), dithiothreitol (2 mM), ATP (5 mM, pH 7.0), MgCl2 6 mM), ProRS (20 nM, with pre-determined active fraction range) and bovine tRNA (20 μg). Controls and compounds, at various concentrations (10 μM to 0.5 nM), were incubated on ice with enzyme mix for 15 min followed by addition of proline (non-labeled and labeled, 3.96 and 1.04 μM (1 μCi) respectively) to initiate the reaction. Reaction was carried out for 10 min at 37° C. and terminated by addition of TCA (10%, 100 μl). Reaction mix was collected on a Whatman GF/B filter using a vacuum filtration manifold. This filter was washed 3 times with 5% TCA followed by 2 washes with ethanol, air dried, and read using a liquid scintillation counter (TopCount NXT) using MicroScint O. IC50 values were calculated and analyzed using ToolSet (4-parameter plot) and depicted herein.

Row | SMILES | IC50 [nM]
1 | Cc1cc(Cl)cc2c(=O)n(CC(=O)CC3CCCCN3)cnc12 (stereo not shown) [Example 3, 6-Chloro-8-methyl-3-[2-oxo-3-(piperidin-2-yl)propyl]quinazolin-4(3H)-one hydrochloride] | 71
2 | O=C(C[C@H]1NCCC[C@@H]1O)Cn1cnc2ccc(-c3cccc(C(F)(F)F)c3)nc2c1=O [Example 6, 3-{3-[(2R,3S)-3-Hydroxypiperidin-2-yl]-2-oxopropyl}-6-[3-(trifluoromethyl)phenyl]pyrido[3,2-d]pyrimidin-4(3H)-one dihydrochloride] | 23
3 | O=C(C[C@H]1NCCC[C@@H]1O)Cn1cnc2ccc(-c3cccc(F)c3)nc2c1=O [Example 7, 6-(3-Fluorophenyl)-3-{3-[(2R,3S)-3-hydroxypiperidin-2-yl]-2-oxopropyl}pyrido[3,2-d]pyrimidin-4(3H)-one dihydrochloride] | 5
4 | O=C(C[C@H]1NCCC[C@@H]1O)Cn1cnc2ccc(-c3ccc(F)c(F)c3)nc2c1=O [Example 9, 6-(3,4-difluorophenyl)-3-{3-[(2R,3S)-3-hydroxypiperidin-2-yl]-2-oxopropyl}pyrido[3,2-d]pyrimidin-4(3H)-one dihydrochloride] | 8
5 | Cc1cc(C(F)(F)F)nc2c(=O)n(CC(=O)C[C@H]3NCCC[C@@H]3O)cnc12 [Example 13, 3-{3-[(2R,3S)-3-hydroxypiperidin-2-yl]-2-oxopropyl}-8-methyl-6-(trifluoromethyl)pyrido[3,2-d]pyrimidin-4(3H)-one dihydrochloride] | 17
6 | Cc1cc(-c2cccc(Cl)c2)nc2c(=O)n(CC(=O)C[C@H]3NCCC[C@@H]3O)cnc12 [Example 16, 6-(3-chlorophenyl)-3-{3-[(2R,3S)-3-hydroxypiperidin-2-yl]-2-oxopropyl}-8-methylpyrido[3,2-d]pyrimidin-4(3H)-one bis(2,2,2-trifluoroacetate)] | 3

Other lines, results leading:

Row | IC50 [nM] | SMILES
7 | 807 | Cc1cc(Cl)cc2c(=O)n(CC(=O)CC3CCCCN3)cnc12 (stereo not shown) [Example 4, 6-Chloro-8-methyl-3-[2-oxo-3-(piperidin-2-yl)propyl]quinazolin-4(3H)-one hydrochloride]
8 | 10 | O=C(C[C@H]1NCCC[C@@H]1O)Cn1cnc2ccc(-c3cccc(Cl)c3)nc2c1=O [Example 5, 6-(3-chlorophenyl)-3-{3-[(2R,3S)-3-hydroxypiperidin-2-yl]-2-oxopropyl}pyrido[3,2-d]pyrimidin-4(3H)-one dihydrochloride]
9 | 14 | O=C(C[C@H]1NCCC[C@@H]1O)Cn1cnc2ccncc2c1=O [Example 8, 3-{3-[(2R,3S)-3-hydroxypiperidin-2-yl]-2-oxopropyl}pyrido[4,3-d]pyrimidin-4(3H)-one dihydrochloride]
10 | 9 | O=C(C[C@H]1NCCC[C@@H]1O)Cn1cnc2ccc(-c3cccnc3)nc2c1=O [Example 11, 3-{3-[(2R,3S)-3-hydroxypiperidin-2-yl]-2-oxopropyl}-6-(pyridin-3-yl)pyrido[3,2-d]pyrimidin-4(3H)-one trihydrochloride]
11 | 13 | Cc1cc(C2CC2)nc2c(=O)n(CC(=O)C[C@H]3NCCC[C@@H]3O)cnc12 [Example 12, 6-cyclopropyl-3-(3-((2R,3S)-3-hydroxypiperidin-2-yl)-2-oxopropyl)-8-methylpyrido[3,2-d]pyrimidin-4(3H)-one dihydrochloride]
12 | 7 | Cc1cc(-c2cccc(F)c2)nc2c(=O)n(CC(=O)C[C@H]3NCCC[C@@H]3O)cnc12 [Example 14, 6-(3-fluorophenyl)-3{3-[(2R,3S)-3-hydroxypiperidin-2-yl]-2-oxopropyl}-8-methylpyrido[3,2-d]pyrimidin-4(3H)-one dihydrochloride]
13 | 8 | Cc1cc(-c2cccc(C(F)(F)F)c2)nc2c(=O)n(CC(=O)C[C@H]3NCCC[C@@H]3O)cnc12 [Example 15, 3-{3-[(2R,3S)-3-hydroxypiperidin-2-yl]-2-oxopropyl}-8-methyl-6-(3-(trifluoromethyl)phenyl)pyrido[3,2-d]pyrimidin-4(3H)-one bis(2,2,2-trifluoroacetic acid)]
